Source: patent US12102667B2, “Polypeptides and antibiotics against gram-negative bacterium comprising the same” (priority 2021, dated 2024)
“Also recorded” adds a separate entry of the source. Read-outs that look alike come from different tables or passages of the source.

Legend:
[1] = tested on: E. coli; test: Checkerboard assay (MIC in combination, FIC index); type: cell-based, Escherichia coli; conditions: antibiotic combined with LNT113; for combination effect with LNT113, in words: E. coli strains overall
Procedure: LNT113 was vertically diluted 2-fold and the antibiotic was serially diluted horizontally in a 96-well plate. Bacterium at a concentration of 10^6 CFU/ml were added to each well in a CAA medium. […] The fractional inhibitory concentration (FIC) for the LNT113 or antibiotic was calculated by dividing the MIC of two drugs by combining it with the MIC of each drug alone. […] The FICI was considered as a synergistic effect ≤0.5, an additive >0.5 ˜≤1, an independent effect (indifference)>1.0 ˜≤2, and an antagonistic effect (antagonism) >2.

[2] = tested on: E. coli; conditions: cited from earlier work

SMILES | Fractional inhibitory concentration index (FICI) of LNT113 using various antibiotics ([1]; E. coli ATCC 8739) | Fractional inhibitory concentration index (FICI) of LNT113 using various antibiotics ([1]; E. coli ATCC 51739) | Fractional inhibitory concentration index (FICI) of LNT113 using various antibiotics ([1]; E. coli CCARM 1A746) | Fractional inhibitory concentration index (FICI) of LNT113 using various antibiotics ([1]; E. coli FORC81) | Fractional inhibitory concentration index (FICI) of LNT113 using various antibiotics ([1]; E. coli UPEC 3150) | combination effect with LNT113, in words [1] | MIC of antibiotics ([2]; E. coli CCARM 1A746) | MIC of antibiotics ([2]; E. coli CCARM 1B684)
CC[C@H]1OC(=O)[C@H](C)[C@@H](O[C@H]2C[C@@](C)(OC)[C@@H](O)[C@H](C)O2)[C@H](C)[C@@H](O[C@@H]2O[C@H](C)C[C@H](N(C)C)[C@H]2O)[C@](C)(O)C[C@@H](C)CN(C)[C@H](C)[C@@H](O)[C@]1(C)O [Azithromycin] | 1 | 0.75 | 1 | 2 | 0.75 | – | – | –
CC(C)(O/N=C(\C(=O)N[C@@H]1C(=O)N2C(C(=O)[O-])=C(C[n+]3ccccc3)CS[C@H]12)c1csc(N)n1)C(=O)O [Ceftazidime] | 2 | 2 | 2 | 1 | 1 | Neither ceftazidime and kanamycin showed a synergistic or additive effect; also recorded: little additive effect | – | –
O=C(N[C@H](CO)[C@H](O)c1ccc([N+](=O)[O-])cc1)C(Cl)Cl [Chloramphenicol] | 1 | 0.75 | – | 2 | 0.75 | – | – | –
NC[C@H]1O[C@H](O[C@H]2[C@H](O)[C@@H](O[C@H]3O[C@H](CO)[C@@H](O)[C@H](N)[C@H]3O)[C@H](N)C[C@@H]2N)[C@H](O)[C@@H](O)[C@@H]1O [Kanamycin] | 2 | 1 | – | 1 | 1 | – | – | –
C[C@@H](O)[C@H]1C(=O)N2C(C(=O)O)=C(S[C@@H]3CN[C@H](C(=O)N(C)C)C3)[C@H](C)[C@H]12 [Meropenem] | 0.63 | 0.75 | 1 | 2 | 1 | slight additive effect | – | –
CCn1cc(C(=O)O)c(=O)c2cc(F)c(N3CCNCC3)cc21 [Norfloxacin] | – | – | – | – | – | – | ≥128 µg/mL | 32 µg/mL
[H]/N=C(/N)N[C@H]1[C@H](O)[C@@H](O)[C@H](O[C@@H]2O[C@@H](C)[C@](O)(C=O)[C@H]2O[C@@H]2O[C@@H](CO)[C@H](O)[C@@H](O)[C@@H]2NC)[C@@H](N/C(N)=N\[H])[C@@H]1O [Streptomycin] | – | – | – | – | – | – | ≥128 µg/mL | ≥128 µg/mL
CN(C)c1cc(NC(=O)CNC(C)(C)C)c(O)c2c1C[C@H]1C[C@H]3[C@H](N(C)C)C(O)=C(C(N)=O)C(=O)[C@@]3(O)C(O)=C1C2=O [Tigecycline] | 2 | 0.63 | 2 | 2 | 0.63 | – | – | –
